In patent US20230391868A1, “COMPOSITIONS FOR AND METHODS OF TREATING CANCER” (The George Washington University, priority 2022, published 2023):

How the values were obtained:
SIRPα [1] = experiment: SIRPα gene expression in mouse macrophages by qRT-PCR; type: cell-based; details: A31A7 macrophages and BMDMs, unpolarized and polarized, qRT-PCR (FIG. 2A)
Description: Bone marrow-derived macrophages were isolated from the femurs and tibias of wild-type C57/Bl6, HDAC6 knockout (C57BL/6J-Hdac6em2Lutzy/J, 029318, Jackson Laboratory), or UBC-GFP (C57BL/6-Tg(UBC-GFP)30Scha/J, 004353, Jackson Laboratory). Isolated bone marrow cells were cultured in RPMI 1640 complete medium with 10% FBS, 1% NEAA, and 1% penicillin-streptomycin in 5% CO2 at 37° C. Medium was supplemented with murine recombinant M-CSF (20 ng/mL, 576404, Biolegend) to differentiate monocytes into macrophages. Three days after bone marrow isolation, undifferentiated and floating cells were washed with PBS and replaced with fresh RPMI media. A3.1A7 cells and BMDMs were pretreated with 5 μM of HDAC6 inhibitor NextA or vehicle prior to adding polarizing cytokines. […]
(§1) qRT-PCR: Total RNA was extracted from cells using the Trizol reagent according to manufacturer's instructions (ThermoFisher Scientific, 15596018). […] RNA was quantified using a NanoDrop One Spectrophotometer (ThermoFisher Scientific). […] Target mRNA was quantified using MyIQ single-color real-time PCR detection system from Bio-Rad (Bio-Rad, Hercules, CA) and iQ SYBR green Supermix (Bio-Rad, 1708882). […] Quantification is expressed in arbitrary units and target mRNA levels were normalized to R-actin expression.

[2] = tested on: WM793 human melanoma cells; experiment: CD47 gene expression upon IFNγ in WM793 cells; type: cell-based; details: 5 μM NextA (FIG. 3L)
Description: qRT-PCR: Total RNA was extracted from cells using the Trizol reagent according to manufacturer's instructions (ThermoFisher Scientific, 15596018). Samples were then processed immediately or stored at −80° C. RNA was quantified using a NanoDrop One Spectrophotometer (ThermoFisher Scientific). The 260/280 ratios were routinely over 1.8. Sample cDNA was produced using the iScript cDNA synthesis kit (Bio-Rad, 1708891). Target mRNA was quantified using MyIQ single-color real-time PCR detection system from Bio-Rad (Bio-Rad, Hercules, CA) and iQ SYBR green Supermix (Bio-Rad, 1708882). […] Quantification is expressed in arbitrary units and target mRNA levels were normalized to R-actin expression.
This phenomenon was further examined in human melanoma cell lines to test the translational application of the results obtained using mouse models. […] Furthermore, the effects of HDAC6 KD on IFNγ-driven CD47 upregulation was analyzed. […] The effects of pharmacological inhibition of HDAC6 in other human melanoma cell lines (WM1361A and WM793) were also assessed. […]

SIRPα [3] = experiment: SIRPα gene expression in THP1-derived macrophages by qRT-PCR; type: cell-based, human; details: qRT-PCR (FIG. 2A)
Description: Macrophages were polarized to M1-like phenotype using 50 ng/mL of interferon gamma (IFNγ, 575306, Biolegend) and 100 ng/mL of bacterial lipopolysaccharide (LPS, L2880, Sigma Aldrich, St. Louis, MO) for 24 hours. To polarize macrophages towards the M2-like phenotype, macrophages were stimulated with 20 ng/mL of IL-4 (214-14, PeproTech) and 20 ng/mL of IL-13 (575904, Biolegend). THP1 monocytes were treated with 5 ng/mL of phorbol 12-myristate 13-acetate (PMA) to induce differentiation into macrophages. Once converted to macrophages, media was replaced to remove PMA prior to treatment and/or polarization. Polarization towards M1 and M2 phenotypes was performed with respective recombinant human cytokines from PeproTech: 50 ng/mL of IFNγ (300-02), 20 ng/mL IL-4 (200-04), and 20 ng/mL IL-13 (200-13). 100 ng/mL LPS was also used to polarize toward the M1 phenotype. 3. In vivo Studies.
as §1

## CCCCN(Cc1ccc(C(=O)NO)cc1)C(=O)Nc1ccccc1 [NextA, Nexturastat A]
SIRPα [1]
  Sirpa expression at the transcriptional level: significantly downregulated
SIRPα [1]; listed as Nexturastat A
  Sirpa expression at the transcriptional level: downregulated
[2]
  IFNγ-driven CD47 upregulation: corroborated
SIRPα [3]
  SIRPα expression at the transcriptional level: significantly downregulated
